Laboratory results taken from patent US11912794B2, “Modulation of structured polypeptide specificity” (BicycleRD Limited, priority 2011, dated 2024).
Numbered stars: 1 amine (or outer) side, 2 acyl side, 3 side chain; on linkers, the order of the positions; unused ones are H or OH. Bridge positions count the residues as written; N and C are the ends. Square brackets hold non-standard residues; d marks the D form. Peptide text beside a SMILES is read from it. Phe(4-guanidino) = N=C(N)Nc1ccc(C[C@H](N)C(=O)O)cc1; 2Nal = N[C@@H](Cc1ccc2ccccc2c1)C(=O)O; TBMB = c1c(C[*:1])cc(C[*:3])cc1C[*:2]; NMeR = CN[C@@H](CCCNC(=N)N)C(=O)O; Hyp = O=C(O)[C@@H]1C[C@@H](O)CN1; hArg = N=C(N)NCCCC[C@H](N)C(=O)O; Aze = O=C(O)[C@@H]1CCN1

Legend:
rat plasma Kallikrein [1] = molecular target: T1, rat plasma Kallikrein (Rattus norvegicus, UniProt P14272); experiment: Functional enzyme inhibition assay, fluorogenic substrate Z-PheArg-AMC; format: biochemical
T1 construct: polyhistidine tag with proTEV cleavage site (pro-peptide) (N, cleaved yes); made in house; host or cells: HEK-293 (suspension-adapted)
T1 sequence (P14272 391-638 limits assumed): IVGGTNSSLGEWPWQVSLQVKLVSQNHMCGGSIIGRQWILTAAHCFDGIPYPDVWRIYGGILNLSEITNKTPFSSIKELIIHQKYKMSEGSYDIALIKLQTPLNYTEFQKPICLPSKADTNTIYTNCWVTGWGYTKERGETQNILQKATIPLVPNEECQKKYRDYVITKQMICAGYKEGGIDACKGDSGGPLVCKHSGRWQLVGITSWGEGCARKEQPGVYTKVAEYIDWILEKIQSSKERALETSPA

human plasma Kallikrein = molecular target: T2, human plasma Kallikrein (Homo sapiens, UniProt P03952); experiment: as above; format: biochemical
T2 construct: purchased Stratech, UK
T2 sequence (P03952 20-638): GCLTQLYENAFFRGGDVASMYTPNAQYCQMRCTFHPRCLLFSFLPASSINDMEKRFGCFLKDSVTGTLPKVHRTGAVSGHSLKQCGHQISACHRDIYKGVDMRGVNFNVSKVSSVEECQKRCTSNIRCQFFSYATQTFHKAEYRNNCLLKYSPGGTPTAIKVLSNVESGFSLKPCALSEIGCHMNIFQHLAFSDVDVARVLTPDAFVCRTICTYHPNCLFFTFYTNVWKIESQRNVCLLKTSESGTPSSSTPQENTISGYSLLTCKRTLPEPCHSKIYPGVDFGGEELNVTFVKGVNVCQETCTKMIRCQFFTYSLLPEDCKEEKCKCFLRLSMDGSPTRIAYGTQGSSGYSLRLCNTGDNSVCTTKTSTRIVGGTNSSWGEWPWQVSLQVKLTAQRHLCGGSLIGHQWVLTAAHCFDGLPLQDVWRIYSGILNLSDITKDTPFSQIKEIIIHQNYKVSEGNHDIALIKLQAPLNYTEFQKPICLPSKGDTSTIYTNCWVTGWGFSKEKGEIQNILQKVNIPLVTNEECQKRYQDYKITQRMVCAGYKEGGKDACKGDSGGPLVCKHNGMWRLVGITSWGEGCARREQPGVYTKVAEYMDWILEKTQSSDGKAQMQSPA

[2] = Plasma stability method 3 (95% plasma, quantitative LC/MS, Biofocus); format: in vitro ADME, rat
Protocol: To obtain plasma stability quantitatively, peptide stock solutions (1 mM in DMSO) were shipped to Biofocus, UK, who performed the analysis. Peptides were diluted to 100 uM with water, and diluted 1:20 in plasma (5 uM final concentration, with the plasma at 95%), sampled as appropriate, precipitated as above, and quantified using a Waters Xevo TQ-MS.

[3] = Plasma stability profiling method 1 (35% plasma, MALDI-TOF, qualitative); format: in vitro ADME, rat; details: 35% rat plasma, 37 deg C, method 1, comparative estimate
How it was run: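 Peptide at 200 uM incubated at 37 deg C in 35% rat or human citrated plasma with 1×PBS, sampled at 0, 3, 24 h then daily up to 10 days. Parent mass tracked by MALDI-TOF at similar laser intensity; value is time until parent no longer detectable, qualitative only.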

[4] = molecular target: Monkey plasma Kallikrein (mPK) (Macaca mulatta, UniProt A0A1D5Q7U7); experiment: Target specificity, Ki for orthologous protease; format: biochemical
Monkey plasma Kallikrein (mPK), sequence (A0A1D5Q7U7 391-638): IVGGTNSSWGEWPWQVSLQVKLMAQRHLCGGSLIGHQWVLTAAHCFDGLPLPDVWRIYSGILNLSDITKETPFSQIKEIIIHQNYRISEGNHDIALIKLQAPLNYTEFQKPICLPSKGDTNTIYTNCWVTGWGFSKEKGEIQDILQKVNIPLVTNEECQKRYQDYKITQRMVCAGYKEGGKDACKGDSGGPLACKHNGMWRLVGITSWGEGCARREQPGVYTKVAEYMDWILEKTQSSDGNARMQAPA

rat plasma Kallikrein [5] = molecular target: T1, rat plasma Kallikrein; details: highest concentration tested (10 μM); Heinis et al. 2009; cited from earlier work
Human thrombin = Human thrombin (Homo sapiens, UniProt P00734); details: highest concentration tested (10 μM); Heinis et al. 2009; cited from earlier work
Human factor XIa (hfXIa) = Human factor XIa (hfXIa) (Homo sapiens, UniProt P03951); details: highest concentration tested (10 μM); Heinis et al. 2009; cited from earlier work
Human factor XIa (hfXIa), sequence (P03951 388-625 limits assumed): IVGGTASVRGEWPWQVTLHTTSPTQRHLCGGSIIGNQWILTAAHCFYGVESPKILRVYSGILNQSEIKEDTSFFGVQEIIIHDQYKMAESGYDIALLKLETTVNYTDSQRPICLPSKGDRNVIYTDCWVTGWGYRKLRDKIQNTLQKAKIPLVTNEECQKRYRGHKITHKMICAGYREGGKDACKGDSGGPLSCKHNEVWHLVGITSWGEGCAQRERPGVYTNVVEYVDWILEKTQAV
Human factor XIa (hfXIa), sequence (P03951 19-387 partner limits assumed): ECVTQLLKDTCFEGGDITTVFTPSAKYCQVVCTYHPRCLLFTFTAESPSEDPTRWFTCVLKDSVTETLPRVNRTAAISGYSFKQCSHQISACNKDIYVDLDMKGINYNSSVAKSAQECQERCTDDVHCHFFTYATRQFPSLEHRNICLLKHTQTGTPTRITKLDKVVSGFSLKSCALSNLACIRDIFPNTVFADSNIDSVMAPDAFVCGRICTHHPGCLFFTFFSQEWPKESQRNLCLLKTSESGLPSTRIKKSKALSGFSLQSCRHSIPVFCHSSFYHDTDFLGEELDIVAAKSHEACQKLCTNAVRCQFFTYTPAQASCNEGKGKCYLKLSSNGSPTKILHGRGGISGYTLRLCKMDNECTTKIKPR

[6] = Ki (nM) (human kallikrein), Ac-06-34-18(TMB)-NH2 series

Row | SMILES | t1/2 (hrs) in rat plasma ([2]; rat, plasma, 5 uM) [h] | Observable in rat plasma, for days [3] [days] | Ki (human plasma Kallikrein; [6]) [nM] | also measured
1 | CC(C)C[C@@H]1NC(=O)[C@H](CC(=O)O)NC(=O)[C@H](CCC(N)=O)NC(=O)[C@H](Cc2c[nH]cn2)NC(=O)[C@H](CC(C)C)NC(=O)[C@@H]2CSCc3cc(cc(c3)CSC[C@@H](C(=O)N[C@@H](C)C(N)=O)NC1=O)CSC[C@H](NC(=O)[C@H](C)N)C(=O)N[C@@H](CO)C(=O)N[C@@H](Cc1c[nH]c3ccccc13)C(=O)N1CCC[C@H]1C(=O)N[C@@H](C)C(=O)N[C@@H](CCCNC(=N)N)C(=O)N2 [Peptide 06-34-18] (H-ACSWPARCLHQDLCA-NH2; linker 2-8-14 via TBMB) | – | – | – | IC50 (rat plasma Kallikrein [1]): 0.56 nM; IC50 (human plasma Kallikrein): 0.07 nM
2 | CC(=O)N[C@H]1CSCc2cc3cc(c2)CSC[C@H](NC(=O)[C@H](CCCNC(=N)N)NC(=O)[C@H](Cc2ccc(O)cc2)NC(=O)[C@@H]2CCCN2C(=O)[C@H](Cc2ccccc2)NC(=O)[C@H](CO)NC1=O)C(=O)N[C@@H](CC(C)C)C(=O)N[C@@H](Cc1c[nH]cn1)C(=O)N[C@@H](CCC(N)=O)C(=O)N[C@@H](CC(=O)O)C(=O)N[C@@H](CC(C)C)C(=O)N[C@H](C(N)=O)CSC3 [Ac-(06-34-18) FPYR] (Ac-CSFPYRCLHQDLC-NH2; linker 1-7-13 via TBMB) | 0.9 | 2 | 0.46 | –
3 | CC(=O)N[C@H]1CSCc2cc3cc(c2)CSC[C@H](NC(=O)[C@H](CCCNC(=N)N)N(C)C(=O)[C@H](Cc2ccc(O)cc2)NC(=O)[C@@H]2CCCN2C(=O)[C@H](Cc2ccccc2)NC(=O)[C@H](CO)NC1=O)C(=O)N[C@@H](CC(C)C)C(=O)N[C@@H](Cc1c[nH]cn1)C(=O)N[C@@H](CCC(N)=O)C(=O)N[C@@H](CC(=O)O)C(=O)N[C@@H](CC(C)C)C(=O)N[C@H](C(N)=O)CSC3 [Ac-(06-34-18) Phe2 Tyr4 NMeArg5] (Ac-CSFPY[NMeR]CLHQDLC-NH2; linker 1-7-13 via TBMB) | >20 | >10 | 3.56 | –
4 | C[C@H](N)C(=O)N[C@H]1CSCc2cc3cc(c2)CSC[C@H](NC(=O)[C@H](CCCNC(=N)N)NC(=O)[C@H](C)NC(=O)[C@@H]2CCCN2C(=O)[C@H](Cc2c[nH]c4ccccc24)NC(=O)[C@H](CCCNC(=N)N)NC1=O)C(=O)N[C@@H]([C@@H](C)O)C(=O)N[C@@H](Cc1c[nH]cn1)C(=O)N[C@@H](CCC(N)=O)C(=O)N[C@@H](CC(N)=O)C(=O)N[C@@H](Cc1ccc(O)cc1)C(=O)N[C@H](C(=O)N[C@@H](C)C(N)=O)CSC3 [Peptide 06-54] (H-ACRWPARCTHQNYCA-NH2; linker 2-8-14 via TBMB; N-terminus and C-terminus assumed) | – | – | – | Ki [4]: 6 nM
5 | CC(=O)N[C@H]1CSCc2cc3cc(c2)CSC[C@H](NC(=O)[C@H](CCCNC(=N)N)NC(=O)[C@H](C)NC(=O)[C@@H]2CCCN2C(=O)[C@H](Cc2c[nH]c4ccccc24)NC(=O)[C@H](CO)NC1=O)C(=O)N[C@@H](CC(C)C)C(=O)N[C@@H](Cc1c[nH]cn1)C(=O)N[C@@H](CCC(N)=O)C(=O)N[C@@H](CC(=O)O)C(=O)N[C@@H](CC(C)C)C(=O)N[C@H](C(N)=O)CSC3 [Ac-(06-34-18) wildtype] | – | – | – | t1/2 (hrs) in rat plasma ([2]; method 3, quantitative, listed as Ac-06-34-18(TMB)-NH2): about 2 hrs; Observable in rat plasma, for days ([3]; listed as Ac-06-34-18(TMB)-NH2): about 2 days
6 | CC(=O)N[C@H]1CSCc2cc3cc(c2)CSC[C@H](NC(=O)[C@H](CCCCNC(=N)N)NC(=O)[C@H](Cc2ccc(O)cc2)NC(=O)[C@@H]2CCCN2C(=O)[C@H](Cc2ccccc2)NC(=O)[C@H](CO)NC1=O)C(=O)N[C@@H](CC(C)C)C(=O)N[C@@H](Cc1c[nH]cn1)C(=O)N[C@@H](CCC(N)=O)C(=O)N[C@@H](CC(=O)O)C(=O)N[C@@H](CC(C)C)C(=O)N[C@H](C(N)=O)CSC3 [Ac-(06-34-18) Phe2 Tyr4 HomoArg5] (Ac-CSFPY[hArg]CLHQDLC-NH2; linker 1-7-13 via TBMB) | 12.2 | >10 | – | rat plasma stability enhanced by a factor ([2]; vs parent Phe2Tyr4 peptide): 13
7 | CC(C)C[C@@H]1NC(=O)[C@H](C)NC(=O)[C@H](CCC(=O)O)NC(=O)[C@H](CC(=O)O)NC(=O)[C@H](C)NC(=O)[C@@H]2CCCN2C(=O)[C@@H]2CSCc3cc(cc(c3)CSC[C@@H](C(=O)NCC(N)=O)NC1=O)CSC[C@H](NC(=O)[C@H](C)N)C(=O)N[C@@H](CO)C(=O)N[C@@H](CC(=O)O)C(=O)N[C@@H](CCCNC(=N)N)C(=O)N[C@@H](Cc1ccccc1)C(=O)N[C@@H](CCCNC(=N)N)C(=O)N[C@@H](CC(N)=O)C(=O)N2 [PK15] (H-ACSDRFRNCPADEALCG-NH2; linker 2-9-16 via TBMB) | – | – | – | Ki [4]: 4 nM; inhibition of rat PK (rat plasma Kallikrein [5]): did not inhibit; inhibition of thrombin (Human thrombin): did not inhibit; Ki (human plasma Kallikrein; Ki Human plasma kalikrein (hPK), Table 1, means of at least two measurements): 3 nM; inhibition of human factor XIa (hfXIa) (Human factor XIa (hfXIa)): did not inhibit
8 | CC(=O)N[C@H]1CSCc2cc3cc(c2)CSC[C@H](NC(=O)[C@H](Cc2ccc(NC(=N)N)cc2)NC(=O)[C@H](Cc2ccc(O)cc2)NC(=O)[C@@H]2CCCN2C(=O)[C@H](Cc2ccccc2)NC(=O)[C@H](CO)NC1=O)C(=O)N[C@@H](CC(C)C)C(=O)N[C@@H](Cc1c[nH]cn1)C(=O)N[C@@H](CCC(N)=O)C(=O)N[C@@H](CC(=O)O)C(=O)N[C@@H](CC(C)C)C(=O)N[C@H](C(N)=O)CSC3 [Ac-(06-34-18) Phe2 Tyr4 4GuanPhe5] (Ac-CSFPY[Phe(4-guanidino)]CLHQDLC-NH2; linker 1-7-13 via TBMB) | 5.0 | >10 | 0.4 | –
9 | CSCC[C@@H]1NC(=O)[C@@H]2CSCc3cc(cc(c3)CSC[C@@H](C(=O)N[C@@H](C)C(N)=O)NC(=O)[C@H](CC(C)C)NC(=O)[C@H](CC(=O)O)NC(=O)[C@H](CCC(N)=O)NC(=O)[C@H](Cc3c[nH]cn3)NC1=O)CSC[C@H](NC(=O)[C@H](C)N)C(=O)N[C@@H](CCCNC(=N)N)C(=O)N[C@@H](Cc1c[nH]c3ccccc13)C(=O)N1CCC[C@H]1C(=O)N[C@@H](C)C(=O)N[C@@H](CCCNC(=N)N)C(=O)N2 [Peptide 06-34-04] (H-ACRWPARCMHQDLCA-NH2; linker 2-8-14 via TBMB; N-terminus and C-terminus assumed) | – | – | – | IC50 (rat plasma Kallikrein [1]): 0.56 nM
10 | CC(=O)N[C@H]1CSCc2cc3cc(c2)CSC[C@H](NC(=O)[C@H](CCCNC(=N)N)NC(=O)[C@H](C)NC(=O)[C@@H]2C[C@@H](O)CN2C(=O)[C@H](Cc2c[nH]c4ccccc24)NC(=O)[C@H](CO)NC1=O)C(=O)N[C@@H](CC(C)C)C(=O)N[C@@H](Cc1c[nH]cn1)C(=O)N[C@@H](CCC(N)=O)C(=O)N[C@@H](CC(=O)O)C(=O)N[C@@H](CC(C)C)C(=O)N[C@H](C(N)=O)CSC3 [Ac-(06-34-18) HyP3] (Ac-CSW[Hyp]ARCLHQDLC-NH2; linker 1-7-13 via TBMB) | – | 2 | 0.41 | –
11 | CC(C)[C@@H]1NC(=O)[C@H](CCCNC(=N)N)NC(=O)[C@@H]2CSCc3cc(cc(c3)CSC[C@@H](C(=O)N[C@@H](C)C(N)=O)NC(=O)[C@H](CC(N)=O)NC1=O)CSC[C@H](NC(=O)[C@H](C)N)C(=O)N[C@@H](Cc1ccccc1)C(=O)N[C@@H](CCCCN)C(=O)N[C@@H](C)C(=O)N2 [Peptide 3B3] | – | – | – | Ki [4]: 11 nM
12 | CC(=O)N[C@H]1CSCc2cc3cc(c2)CSC[C@H](NC(=O)[C@H](Cc2ccc(NC(=N)N)cc2)NC(=O)[C@H](C)NC(=O)[C@@H]2CCN2C(=O)[C@H](Cc2c[nH]c4ccccc24)NC(=O)[C@H](CO)NC1=O)C(=O)N[C@@H](CC(C)C)C(=O)N[C@@H](Cc1c[nH]cn1)C(=O)N[C@@H](CCC(N)=O)C(=O)N[C@@H](CC(=O)O)C(=O)N[C@@H](CC(C)C)C(=O)N[C@H](C(N)=O)CSC3 [Ac-(06-34-18) Aze3 4GuanPhe5] (Ac-CSW[Aze]A[Phe(4-guanidino)]CLHQDLC-NH2; linker 1-7-13 via TBMB) | – | >10 | 0.17 | –
13 | CC(=O)N[C@H]1CSCc2cc3cc(c2)CSC[C@H](NC(=O)[C@H](CCCNC(=N)N)NC(=O)[C@H](C)NC(=O)[C@@H]2CCCN2C(=O)[C@H](Cc2ccc4ccccc4c2)NC(=O)[C@H](CO)NC1=O)C(=O)N[C@@H](CC(C)C)C(=O)N[C@@H](Cc1c[nH]cn1)C(=O)N[C@@H](CCC(N)=O)C(=O)N[C@@H](CC(=O)O)C(=O)N[C@@H](CC(C)C)C(=O)N[C@H](C(N)=O)CSC3 [Ac-(06-34-18) 2NAL2] (Ac-CS[2Nal]PARCLHQDLC-NH2; linker 1-7-13 via TBMB) | – | 2 | 0.5 | –
